From publication PMC4057667, “Study on Biopharmaceutics Classification and Oral Bioavailability of a Novel Multikinase Inhibitor NCE for Cancer Therapy” (International Journal of Molecular Sciences, 2014)
“And” between values parts separate entries of the source, which are not always exact repeats. Equal values may be shown once. Read-outs that look alike come from different tables or passages of the source.

Columns and labels:
[1] = test system: VEGF-stimulated human umbilical vein endothelial cells (HUVECs); design: method as in PMID 21691074; details: in vitro; cited from earlier work
[2] = test system: rat duodenum, jejunum and ileum; experiment: In situ single-pass intestinal perfusion (SPIP)
Procedure: The blank perfusion buffer solution was composed of 9.80 g Hanks’ Balanced Salts, 5.96 g 4-2(Hydroxyethyl) piperazine-1-ethanesulfonic acid (HEPES), 1.16 g NaCl, 3.50 g D-glucose and 0.37 g NaHCO3. The pH was adjusted to 6.5. […] The perfusate containing 2 μg/mL of NCE with and without 0.4% SDS was applied to three intestinal segments to investigate the effect of SDS on intestinal absorption of NCE. To examine whether there was any concentration-dependent characteristics or site specific absorption of NCE, 2, 20 and 40 μg/mL of NCE containing 0.4% SDS (w/v) were also studied in three intestinal segments using the same rat perfusion model.
Male Sprague-Dawley rats (170–230 g) were obtained from the Laboratory Animal Center, Sichuan University (Chengdu, China). Prior to the experiment, animals were fasted for at least 18 h with free access to water. All animal studies were approved and supervised by the State Key Laboratory of Biotherapy Animal Care and Use Committee (Sichuan University, Chengdu, Sichuan, China). Then, single pass intestine perfusion studies were conducted according to the literature. In brief, rats were anaesthetized by pentobarbital sodium (i.p., […]) and placed on a homeothermic pad to maintain their body temperature. After making a 3–4 cm midline abdominal incision, the small intestinal was exposed. The duodenum, jejunum and ileum were isolated as follows: duodenum segment beginning from 1 cm away from pylorus, jejunum segment beginning from 20 cm away from pylorus and ileum segment beginning at the site 20 cm upwards caecum. Each intestinal segment was approximately 10 cm long. After removing the intestinal content by rinsing with warm saline, two glass cannulas were inserted to the distal and proximal end of the segment. Then, the intestinal segments of interest were connected to a perfusion pump and the outlet tubing was placed at the same height as the inlet. The intestine was handled carefully to maintain an intact blood supply.
The segments were rinsed with perfusate at the rate of 1.0 mL/min for 10 min, and then perfused at the rate of 0.2 mL/min for 30 min to maintain a steady-state. The time was set zero immediately when the perfusion started. The outlet perfused samples were collected every 15 min until 120 min. Then, the samples were centrifuged at 1.3 × 10^4 rpm for 10 min. The supernatant was analyzed by HPLC. The length of tested segments was measured and rats were euthanized after experiment.
Peff is the quantitative parameter estimating the passage rate of a solute across a membrane. It was calculated from the steady-state concentration of NCE in the perfusate. The drug concentration in the perfusate was corrected for changes in the water flux. Meanwhile, the density corrected gravimetric method was employed to calculate the net water flux across the incubated intestinal segment. A known volume of perfusate was weighed using an electronic weighing balance to determine the density of the collected samples. After correcting for water flux, the drug concentration in the effluent perfusate (Cout(cor)), was calculated as following.
(3) Cout(cor)=Cout×Qout/Qin
where Cout is the concentration of tested drug in the effluent perfusates, Qin and Qout are the inlet and outlet flow rate (mL/min), respectively, which are adjusted for liquid density (mL/min).
The calculation of permeability across rat intestinal segment was performed from the intestinal perfusate samples collected over 15–120 min (steady state) using the following equation).
(4) Peff=-Qin ln(Cout(cor)/Cin)/2πrl

[3] = test system: platelet-derived growth factor receptor (PDGFR); design: method as in PMID 21691074; details: at a concentration of 10 μM; cited from earlier work
[4] = Pharmacokinetic study in beagle dogs; format: in vivo; details: 30 mg/kg; for AUC(0-t) / Cmax / MRT / Tmax / half-life / bioavailability: beagle, dog, plasma
Procedure: Six healthy beagle dogs (7.97 ± 0.73 kg) were randomly assigned into two groups. NCE was given to the dogs by intragastrical (i.g.) and intravenous (i.v.) administration at a dosage of 30 mg/kg. Blood was collected from the forelimb vein of the dogs at 0.25, 0.5, 0.75, 1, 2, 3, 4, 6, 8, 10, 12 and 24 h. Plasma samples were obtained by centrifuging blood at 3000 rpm for 10 min and were stored at −20 °C. Before analysis, acetonitrile was added into the plasma and the mixture was vortexed for 5 min to precipitate the protein. Then, the samples were centrifuged for 10 min at a speed of 1.3 × 10^4 rpm. The supernatant was collected and the solvent was removed by pressure blowing concentrator. Then, mobile phase was added to dissolve the residual. The concentrations of NCE in plasma were determined by HPLC.
The pharmacokinetic parameters were calculated using the pharmacokinetics-intelligent analysis module of DAS 2.1.1 software. Total areas under the concentration-time curve (AUC) after i.g. and i.v. administration were determined by extrapolation from time 0−t (AUC0−t), respectively. The oral bioavailability of NCE was estimated using the ratio of AUC values following i.g. and i.v. administration.

CNC(=O)c1cc(Oc2ccc(NC(=O)c3cccc(C(F)(F)F)c3)cc2)ccn1.Cc1ccc(S(=O)(=O)O)cc1.O [NCE, 2-methylcarbamoyl-4-{4-[3-(trifluoromethyl)benzamido]phenoxy} pyridinium 4-methylbenzenesulfonate monohydrate]
inhibition of VEGF-stimulated HUVECs proliferation [1]: more selective inhibition | Peff ([2]; Duodenum, 2 μg/mL, with 0.4% SDS, n = 3): 0.26 ± 0.25 ^N.S. 10^−4 cm/s | Peff ([2]; Duodenum, 2 μg/mL, without SDS, n = 3): 0.26 ± 0.29 10^−4 cm/s | Peff ([2]; Duodenum, perfusate 2 μg/mL, 0.4% SDS, n = 6): 0.21 ± 0.18 10^−4 cm/s | Peff ([2]; Duodenum, perfusate 20 μg/mL, 0.4% SDS, n = 6): 0.34 ± 0.12 10^−4 cm/s | Peff ([2]; Duodenum, perfusate 40 μg/mL, n = 6): 0.49 ± 0.29 ^* 10^−4 cm/s and 0.49 ± 0.29 10^−4 cm/s | Peff ([2]; Ileum, 2 μg/mL, with 0.4% SDS, n = 3): 0.22 ± 0.15 ^N.S. 10^−4 cm/s | Peff ([2]; Ileum, 2 μg/mL, without SDS, n = 3): 0.23 ± 0.18 ^N.S. 10^−4 cm/s | Peff ([2]; Ileum, perfusate 2 μg/mL, 0.4% SDS, n = 6): 0.23 ± 0.25 ^N.S. 10^−4 cm/s | Peff ([2]; Ileum, perfusate 20 μg/mL, 0.4% SDS, n = 6): 0.29 ± 0.10 ^N.S. 10^−4 cm/s | Peff ([2]; Ileum, perfusate 40 μg/mL, n = 6): 0.52 ± 0.28 ^N.S. ^* 10^−4 cm/s and 0.52 ± 0.28 ^N.S. 10^−4 cm/s | Peff ([2]; Jejunum, 2 μg/mL, with 0.4% SDS, n = 3): 0.25 ± 0.22 ^N.S. 10^−4 cm/s | Peff ([2]; Jejunum, 2 μg/mL, without SDS, n = 3): 0.25 ± 0.24 ^N.S. 10^−4 cm/s | Peff ([2]; Jejunum, perfusate 2 μg/mL, 0.4% SDS, n = 6): 0.20 ± 0.30 ^N.S. 10^−4 cm/s | Peff ([2]; Jejunum, perfusate 20 μg/mL, 0.4% SDS, n = 6): 0.30 ± 0.15 ^N.S. 10^−4 cm/s | Peff ([2]; Jejunum, perfusate 40 μg/mL, n = 6): 0.56 ± 0.26 ^N.S. ^* 10^−4 cm/s and 0.56 ± 0.26 ^N.S. 10^−4 cm/s | transportation mechanism in intestine ([2]; Peff unchanged from 2–40 μg/mL): passive diffusion | permeability class ([2]; from Peff compared with theophylline, ranitidine and propranolol): high permeability | minimum of Peff ([2]; three segments, three concentrations, found in jejunum): 20 ×10⁻⁶ cm/s | inhibition rate [3]: 55% | i.v./i.g. AUC0−t ratio ([4]; beagle dogs): 4.19 | i.v./i.g. Cmax ratio ([4]; beagle dogs): about 11.10 | AUC(0-t) ([4]; iv, Beagle 1): 56200 ng·h/mL | Cmax ([4]; iv, Beagle 1): 26000 ng/mL | MRT ([4]; iv, Beagle 1): 1.84 h | Tmax ([4]; iv, Beagle 1): 0.23 h | half-life ([4]; iv, Beagle 1): 6.39 h | AUC(0-t) ([4]; iv, Beagle 2): 34400 ng·h/mL | Cmax ([4]; iv, Beagle 2): 23700 ng/mL | MRT ([4]; iv, Beagle 2): 1.68 h | Tmax ([4]; iv, Beagle 2): 0.3 h | half-life ([4]; iv, Beagle 2): 3.56 h | AUC(0-t) ([4]; iv, Beagle3): 25100 ng·h/mL | Cmax ([4]; iv, Beagle3): 21600 ng/mL | MRT ([4]; iv, Beagle3): 1.35 h | Tmax ([4]; iv, Beagle3): 0.22 h | half-life ([4]; iv, Beagle3): 9.23 h | AUC(0-t) ([4]; iv, mean ± SD, n = 3): 38600 ± 16000 ng·h/mL | Cmax ([4]; iv, mean ± SD, n = 3): 23800 ± 2230 ng/mL | MRT ([4]; iv, mean ± SD, n = 3): 1.62 ± 0.25 h | Tmax ([4]; iv, mean ± SD, n = 3): 0.25 ± 0.04 h | half-life ([4]; iv, mean ± SD, n = 3): 6.39 ± 2.83 h | AUC(0-t) ([4]; po, i.g., Beagle 4): 6860 ng·h/mL | Cmax ([4]; po, i.g., Beagle 4): 3500 ng/mL | MRT ([4]; po, i.g., Beagle 4): 10.8 h | Tmax ([4]; po, i.g., Beagle 4): 2 h | half-life ([4]; po, i.g., Beagle 4): 12.3 h | bioavailability ([4]; po, i.g., Beagle 4, read-out: F, absolute bioavailability): 12.2% | AUC(0-t) ([4]; po, i.g., Beagle 5): 13600 ng·h/mL | Cmax ([4]; po, i.g., Beagle 5): 860 ng/mL | MRT ([4]; po, i.g., Beagle 5): 10.6 h | Tmax ([4]; po, i.g., Beagle 5): 1.73 h | half-life ([4]; po, i.g., Beagle 5): 17.3 h | bioavailability ([4]; po, i.g., Beagle 5, read-out: F, absolute bioavailability): 39.6% | AUC(0-t) ([4]; po, i.g., Beagle 6): 7160 ng·h/mL | Cmax ([4]; po, i.g., Beagle 6): 2060 ng/mL | MRT ([4]; po, i.g., Beagle 6): 11.2 h | Tmax ([4]; po, i.g., Beagle 6): 2 h | half-life ([4]; po, i.g., Beagle 6): 14.9 h | bioavailability ([4]; po, i.g., Beagle 6, read-out: F, absolute bioavailability): 28.5% | AUC(0-t) ([4]; po, i.g., mean ± SD, n = 3): 9210 ± 3820 ng·h/mL | Cmax ([4]; po, i.g., mean ± SD, n = 3): 2140 ± 1320 ng/mL | MRT ([4]; po, i.g., mean ± SD, n = 3): 10.8 ± 0.31 h | Tmax ([4]; po, i.g., mean ± SD, n = 3): 1.91 ± 0.15 h | half-life ([4]; po, i.g., mean ± SD, n = 3): 14.8 ± 2.53 h | bioavailability ([4]; po, i.g., mean ± SD, n = 3, read-out: F, absolute bioavailability): 26.8 ± 13.8%
